pEC50: −log10 of the molar value. Where two headings read alike, the source gives them in different places.
Test system: hypoxia-inducible endogenous VEGF expression
Assay: Hypoxia-inducible endogenous VEGF expression ELISA in HeLa cells, dose-response EC50 (Table 3)
Format: cell-based, human
Conditions: Homo sapiens; for EC50: HeLa, read-out: ELISA EC50 μM; for pEC50: HeLa cells, hypoxic conditions (1% O2), 24-48 hours, VEGF in conditioned media, read-out: ELISA EC50
Method in brief: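 HeLa cells kept 24-48 h under hypoxia (1% O2, 5% CO2, nitrogen balance) with or without compound, e.g. seven concentrations; secreted VEGF in conditioned medium quantified by ELISA against a standard curve. Parallel Cell Titer Glo viability under identical conditions excludes cytotoxicity.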

`O=C(Oc1ccc(Cl)cc1)N1CCc2c([nH]c3ccc(Cl)cc23)C1c1ccc(OCC(O)CN2CCOCC2)cc1` (stereo not drawn) [Compound 904] gave an EC50 of less than 0.008 µM.

For `COCCN(C)CCCOc1ccc(C2c3[nH]c4ccc(Cl)cc4c3CCN2C(=O)Oc2ccc(Cl)cc2)cc1` (stereo not drawn) [Compound 908], the EC50 was less than 0.008 µM.

For `O=C(Oc1ccccc1)N1CCc2c([nH]c3ccc(Cl)cc23)C1c1ccc(OCCCn2ccnc2)cc1` (stereo not drawn) [Compound 911], the pEC50 was greater than 8.10.

With `COCCN(CCOC)CC(O)COc1ccc(C2c3[nH]c4ccc(Cl)cc4c3CCN2C(=O)Oc2ccc(F)cc2)cc1` (stereo not drawn) [Compound 913] the EC50 was less than 0.008 µM.

With `Cc1ccc(OC(=O)N2CCc3c([nH]c4ccc(Cl)cc34)C2c2ccc(OCCCCl)cc2)cc1` (stereo not drawn) [Compound 915] the pEC50 was greater than 8.10.

`COCCN(CCCOc1ccc(C2c3[nH]c4ccc(Cl)cc4c3CCN2C(=O)Oc2ccc(Cl)cc2)cc1)CCOC` (stereo not drawn) [Compound 916] was tested, and the EC50 was less than 0.008 µM.

`O=C(Oc1ccc(Cl)cc1)N1CCc2c([nH]c3ccc(Cl)cc23)C1c1ccc(OCCCn2ccnc2)cc1` (stereo not drawn) [Compound 917] was tested, and the pEC50 was greater than 8.10.

`COCCN(CCOC)CC(O)COc1ccc(C2c3[nH]c4ccc(Cl)cc4c3CCN2C(=O)Oc2ccc(Cl)cc2)cc1` (stereo not drawn) [Compound 918] gave an EC50 of less than 0.008 µM.

`COc1ccc(OC(=O)N2CCc3c([nH]c4ccc(Cl)cc34)C2c2ccc(OCCCn3ccnc3)cc2)cc1` (stereo not drawn) [Compound 920] gave a pEC50 greater than 8.10.

Compound `O=C(Oc1ccc(Cl)cc1)N1CCc2c([nH]c3ccc(Cl)cc23)C1c1ccc(OCCCCl)cc1` (stereo not drawn) [Compound 921] has a pEC50 greater than 8.10.

`O=C(Oc1ccc(F)cc1)N1CCc2c([nH]c3ccc(Cl)cc23)C1c1ccc(OCC(O)Cn2ccnc2)cc1` (stereo not drawn) [Compound 922] gave a pEC50 greater than 8.10.

Compound `O=C(Oc1ccc(Cl)cc1)N1CCc2c([nH]c3ccc(Cl)cc23)C1c1ccc(OCC(O)CN2CCSCC2)cc1` (stereo not drawn) [Compound 923] has an EC50 of less than 0.008 µM.

`O=C(Oc1ccc(F)cc1)N1CCc2c([nH]c3ccc(Cl)cc23)C1c1ccc(OCC(O)CN2CCSCC2)cc1` (stereo not drawn) [Compound 925] showed an EC50 of less than 0.008 µM.

For `O=C(Oc1ccccc1Cl)N1CCc2c([nH]c3ccc(Cl)cc23)C1c1ccc(OCCCn2cncn2)cc1` (stereo not drawn) [Compound 926], the pEC50 was greater than 8.10.

`CN1CCCC(COc2ccc(C3c4[nH]c5ccc(Cl)cc5c4CCN3C(=O)Oc3ccc(F)cc3)cc2)C1` (stereo not drawn) [Compound 932] showed an EC50 of less than 0.008 µM.

Work on `O=C(Oc1ccc(Cl)cc1)N1CCc2c([nH]c3ccc(Cl)cc23)C1c1ccc(OCCCN2CCSCC2)cc1` (stereo not drawn) [Compound 933] yielded an EC50 of less than 0.008 µM.

`O=C(Oc1ccccc1Cl)N1CCc2c([nH]c3ccc(Cl)cc23)C1c1ccc(OCCCn2ccnc2)cc1` (stereo not drawn) [Compound 934] was tested, and the pEC50 was greater than 8.10.

In the case of `COCCN(C)CC(O)COc1ccc(C2c3[nH]c4ccc(Cl)cc4c3CCN2C(=O)Oc2ccc(F)cc2)cc1` (stereo not drawn) [Compound 936], the EC50 was less than 0.008 µM.

Work on `CCN(CC)CC(O)COc1ccc(C2c3[nH]c4ccc(Cl)cc4c3CCN2C(=O)Oc2ccc(Cl)cc2)cc1` (stereo not drawn) [Compound 938] yielded an EC50 of less than 0.008 µM.

In the case of `O=C(Oc1ccc(F)cc1)N1CCc2c([nH]c3ccc(Cl)cc23)C1c1ccc(OCC(O)Cn2ccnn2)cc1` (stereo not drawn) [Compound 941], the pEC50 was greater than 8.10.

`O=C(Oc1ccc(Cl)cc1)N1CCc2c([nH]c3ccc(Cl)cc23)C1c1ccc(OCCCN2CCN(CCO)CC2)cc1` (stereo not drawn) [Compound 942] was tested, and the EC50 was 0.008 to 0.04 µM.

Work on `COc1ccc(OC(=O)N2CCc3c([nH]c4ccc(Cl)cc34)C2c2ccc(OCCCCl)cc2)cc1` (stereo not drawn) [Compound 944] yielded a pEC50 of 7.40 to 8.10.

`CCN(CC)CCCOc1ccc(C2c3[nH]c4ccc(Cl)cc4c3CCN2C(=O)Oc2ccc(Cl)cc2)cc1` (stereo not drawn) [Compound 946] gave an EC50 of 0.008 to 0.04 µM.

Compound `Cc1ccc(OC(=O)N2CCc3c([nH]c4ccc(Cl)cc34)C2c2ccc(OCC3CCCN(C)C3)cc2)cc1` (stereo not drawn) [Compound 951] has an EC50 of 0.008 to 0.04 µM.

`CN1CCCC(COc2ccc(C3c4[nH]c5ccc(Cl)cc5c4CCN3C(=O)Oc3ccccc3)cc2)C1` (stereo not drawn) [Compound 952] showed an EC50 of 0.008 to 0.04 µM.

With `CC(C)NCCCOc1ccc(C2c3[nH]c4ccc(Cl)cc4c3CCN2C(=O)Oc2ccc(Cl)cc2)cc1` (stereo not drawn) [Compound 953] the EC50 was 0.008 to 0.04 µM.

In the case of `CCS(=O)(=O)Nc1ccc(C2c3[nH]c4ccc(Cl)cc4c3CCN2C(=O)Oc2ccc(Cl)cc2)cc1` (stereo not drawn) [Compound 958], the pEC50 was 7.40 to 8.10.

Compound `O=C(Oc1ccc(Cl)cc1)N1CCc2c([nH]c3ccc(Cl)cc23)C1c1ccc(OCC(O)CN2CCN(CCO)CC2)cc1` (stereo not drawn) [Compound 960] has an EC50 of 0.008 to 0.04 µM.

With `CN1CCN(CCCOc2ccc(C3c4[nH]c5ccc(Cl)cc5c4CCN3C(=O)Oc3ccc(Cl)cc3)cc2)CC1` (stereo not drawn) [Compound 961] the EC50 was 0.008 to 0.04 µM.

`CN1CCN(CC(O)COc2ccc(C3c4[nH]c5ccc(Cl)cc5c4CCN3C(=O)Oc3ccc(F)cc3)cc2)CC1` (stereo not drawn) [Compound 963] showed an EC50 of 0.008 to 0.04 µM.

Compound `COCCN(C)CC(O)COc1ccc(C2c3[nH]c4ccc(Cl)cc4c3CCN2C(=O)Oc2ccc(Cl)cc2)cc1` (stereo not drawn) [Compound 964] has an EC50 of 0.008 to 0.04 µM.

For `CN1CCCC(COc2ccc(C3c4[nH]c5ccc(Cl)cc5c4CCN3C(=O)Oc3ccc(Cl)cc3)cc2)C1` (stereo not drawn) [Compound 966], the EC50 was 0.008 to 0.04 µM.

With `O=C(Oc1ccc(F)cc1)N1CCc2c([nH]c3ccc(Cl)cc23)C1c1ccc(OCC2CO2)cc1` (stereo not drawn) [Compound 967] the pEC50 was 7.40 to 8.10.

From US20120157401A1, “METHODS FOR TREATING NEUROFIBROMATOSIS” (PTC Therapeutics, Inc., priority 2009, published 2012)
